Data set [1] concerns PoAbs (anti-NIV polyclonal antibodies, mouse serum). It is filed as binding.
In another data set the test system is MoAb MNV80 (IgG1, κ). It is filed as binding, mouse.
A further data set deals with MoAb MNV87 (IgG1, κ). The class given is binding, mouse.
For data set [2], the system named is monoclonal antibody (MoAb) prepared by Maragos et al. Particulars: cited from earlier work.
For data set [3] the following is noted: cited from earlier work.
In another data set the test system is animals. The note with it: cited from earlier work.

Marks after values point to notes of the source that are not given here.

Consider 4-acetylnivalenol [4-Ac-NIV], for which, in data set [1], the “IC50 (fifty percent inhibitory concentration) with PoAb” value is on record as over 1000 ng/mL. Further, in the data set with MoAb MNV80 (IgG1, κ), the “IC50 (fifty percent inhibitory concentration) with MoAb MNV80” value is over 1 µg/mL and the “reactivity with MNV80 (in words)” value is “not”. Besides, in the data set with MoAb MNV87 (IgG1, κ), the “IC50 (fifty percent inhibitory concentration) with MoAb MNV87” value was over 1 µg/mL and the “reactivity with MNV87 (in words)” value is listed as “not”.
For `CC1=C[C@H]2O[C@@H]3[C@H](O)[C@@H](O)[C@](C)([C@@]2(CO)[C@H](O)C1=O)[C@]31CO1` [NIV, nivalenol], in data set [1], the “IC50 (fifty percent inhibitory concentration) with PoAb” value is reported as 70 * ng/mL; the “IC50 of PoAb after the 1st booster immunization” value came out at 1.4 µg/mL; the “reaction range, concentrations between the IC20 and IC80 values, PoAbs” value lay within 0.012 to 0.95 µg/mL. For the same compound, in the data set on MoAb MNV80 (IgG1, κ), the “IC50 (fifty percent inhibitory concentration) with MoAb MNV80” value came to 0.036 µg/mL; the “reaction range, concentrations between the IC20 and IC80 values, MNV80” value fell in the range of 0.0069 to 0.18 µg/mL; the “reactivity with MNV80 (in words)” value is listed as “specifically reacted”. In the data set on MoAb MNV87 (IgG1, κ), the “IC50 (fifty percent inhibitory concentration) with MoAb MNV87” value was determined as 0.037 µg/mL; the “reaction range, concentrations between the IC20 and IC80 values, MNV87” value fell in the range of 0.0071 to 0.17 µg/mL; the “reactivity with MNV87 (in words)” value is reported as “specifically reacted”. The “cross-reactivity compared to reactivity with DON” value in data set [2] was 57.4%. Also, the “lowest observed adverse effect level” value in data set [3] was 0.7 mg/kg body weight per day. Besides, the “toxicity to animals compared with DON (in words)” value in the data set with animals was “more toxic to animals than DON”.
Consider `CC1=C[C@H]2O[C@@H]3[C@H](O)C[C@](C)([C@@]2(CO)[C@H](O)C1=O)[C@]31CO1` [DON, deoxynivalenol], for which, in data set [1], the “IC50 (fifty percent inhibitory concentration) with PoAb” value is given as over 1000 ng/mL. Besides, in the data set on MoAb MNV80 (IgG1, κ), the “IC50 (fifty percent inhibitory concentration) with MoAb MNV80” value is over 1 µg/mL and the “reactivity with MNV80 (in words)” value was “not”. Also, in the data set with MoAb MNV87 (IgG1, κ), the “IC50 (fifty percent inhibitory concentration) with MoAb MNV87” value was over 1 µg/mL and the “reactivity with MNV87 (in words)” value is recorded as “not”. Further, the “temporary tolerable daily intake level” value in data set [3] (LOAEL with a safety factor of 1000) is reported as 1.0 μg/kg body weight.
Turning to `CC(=O)OC[C@]12[C@H](O)C(=O)C(C)=C[C@H]1O[C@@H]1[C@H](O)[C@@H](O)[C@@]2(C)[C@]12CO2` [15-Ac-NIV, 15-acetylnivalenol], in data set [1], the “IC50 (fifty percent inhibitory concentration) with PoAb” value came to 11 ng/mL; the “fold lower IC50 than that with NIV, PoAbs” value turned out to be 6.4 fold; the “reaction range, concentrations between the IC20 and IC80 values, PoAbs” value was 0.0017 to 0.085 µg/mL. Further, in the data set with MoAb MNV80 (IgG1, κ), the “IC50 (fifty percent inhibitory concentration) with MoAb MNV80” value is 0.018 µg/mL; the “fold lower IC50 than that with NIV, MNV80” value came to 2 fold; the “reaction range, concentrations between the IC20 and IC80 values, MNV80” value lay in the range of 0.0028 to 0.1 µg/mL; the “reactivity with MNV80 (in words)” value is “specifically reacted”. For the same compound, in the data set on MoAb MNV87 (IgG1, κ), the “IC50 (fifty percent inhibitory concentration) with MoAb MNV87” value was 0.018 µg/mL; the “fold lower IC50 than that with NIV, MNV87” value is given as 2 fold; the “reaction range, concentrations between the IC20 and IC80 values, MNV87” value was in the range of 0.0024 to 0.095 µg/mL; the “reactivity with MNV87 (in words)” value was “specifically reacted”.
With `CC(=O)O[C@@H]1C[C@]2(C)[C@@]3(CO)[C@H](O)C(=O)C(C)=C[C@H]3O[C@H]1[C@@]21CO1` [3-Ac-DON, 3-acetyldeoxynivalenol], the “IC50 (fifty percent inhibitory concentration) with MoAb MNV80” value with MoAb MNV80 (IgG1, κ) was over 1 µg/mL. The “IC50 (fifty percent inhibitory concentration) with MoAb MNV87” value with MoAb MNV87 (IgG1, κ) was over 1 µg/mL.
Take `CC(=O)OC[C@]12[C@H](O)C(=O)C(C)=C[C@H]1O[C@@H]1[C@H](O)C[C@@]2(C)[C@]12CO2` [15-Ac-DON, 15-acetyldeoxynivalenol]: the “IC50 (fifty percent inhibitory concentration) with MoAb MNV80” value in the data set on MoAb MNV80 (IgG1, κ) is over 1 µg/mL. In the data set with MoAb MNV87 (IgG1, κ), the “IC50 (fifty percent inhibitory concentration) with MoAb MNV87” value was over 1 µg/mL.

(Values after article PMC9693464 (Toxins, 2022).)
